# “Also recorded” adds a separate entry of the source. Where two headings read alike, the source gives them in different places.
# What was measured:
# [1] = target: T1, RGS17-accelerated Gαo GTPase activity (Homo sapiens, UniProt Q9UGC6); test: Malachite green steady-state GTPase assay (RGS17 GAP activity); format: biochemical
# T1 construct: This is the same RGS17 construct used in the high throughput screening campaign that is fully active despite the N-terminal truncation; made in house
# T1 sequence (Q9UGC6 72-206 limits assumed): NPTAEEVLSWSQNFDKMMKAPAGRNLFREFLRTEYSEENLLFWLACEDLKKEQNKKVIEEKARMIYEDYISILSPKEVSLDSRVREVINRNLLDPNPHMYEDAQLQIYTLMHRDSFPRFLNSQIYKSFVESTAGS
# Protocol: Next, the ability of the compounds to inhibit the “GAP” activity of RGS17 was examined. The compounds were tested using a previously described malachite green assay (18), which allows for the detection of free phosphate liberated during the enzymatic cleavage of GTP to GDP by G alpha subunits.
# First, stock solutions of each of the 3 components of the developing solution were prepared according to Monroy et al (18). In brief, Compounds were seeded using a half-log dilution with the highest final concentration of compound at 100 μM down to 1 nM. […] A 4×GTP at 1.2 mM diluted in MGB, was used, with a final concentration of 300 μM. To terminate the reaction, 10 μL of a Developing Solution (DS) was 50:12.5:1 (malachite:molybdate:Tween-20) was added to each well using a Microlab Star liquid handling robot (Hamilton Robotics; Reno, Nev.), this achieved a final ratio 4:1 (sample:developing solution) absorbance was read at 642 nm.
# [2] = tested on: RGS17ΔN:Gαo interaction in HEK293T cells; test: RGS localization assay, GFP-RGS17ΔN co-transfected with hGαo in HEK293T cells; format: cell-based, human
# Protocol: (§1) HEK293T cells co-transfected with GFP-RGS17FL and human Gαo were treated with UI-5, UI-1590 and […] to determine if the compounds could disrupt the RGS17:Gαo interaction that could drive RGS17 to the membrane. […] To test this hypothesis, we constructed a GFP-RGS17 fusion protein with an N-terminal truncation, removing the cysteine-rich motif. […] As a negative control, we tested a known RGS4 inhibitor (CCG-50014) in this assay against RGS17ΔN (21). […] Finally, to ensure the localization was not due to the GFP tag, pAcGFP vector was co-transfected into HEK293T cells with hGαo. […] Cross-sectional fluorescence intensity analysis was used to quantify the intensity of signal at a cross section of the cell. Average signal at the membrane and in the cytoplasm were calculated and change in signal intensity was assessed between time zero and time final. […] Additionally, the control condition of CCG-50014 was subject to the same analyses as the lead compound.
# Twenty four (24) hours prior to plating, assay plates were coated with 30 μl poly-D-lysine per well. Human Embryonic Kidney 293T cells (HEK293T) were plated in to 96 well tissue culture treated glass bottom view plates (Perkin Elmer, Part No. 6005430) at a density of 25K cells per well. 24 hours post seeding, cells were transfected with hGαo in pCDNA 3.1(+), pAcGFPRGS17 FL, pAcGFP RGS17ΔN, empty pAcGFP, hGαo+pAcGFPRGS17 FL, hGαo+pAcGFP RGS17ΔN, or hGαo+empty pAcGFP vector using Lipofectamine 2000 (Life Technologies) as the transfection reagent and according to manufacture protocols. 24 hours post transfection, cell media was removed and replaced with […] serum free, phenol red free DMEM (Life Technologies, Ref No. 31053-028). Cells were then imaged using a Zeiss LSM510 confocal microscope (University of Iowa Central Microscopy Core). Images were analyzed using NIH Image J software and Graphpad Prism 6.
# Compounds at 2× final desired concentrations were diluted in serum free, phenol red free DMEM.
# [3] = tested on: RGS17FL:Gαo interaction in HEK293T cells; test: RGS localization assay, GFP-RGS17FL co-transfected with human Gαo in HEK293T cells; format: cell-based; conditions: 100 μM, 0-10 min
# Protocol: as §1
# Twenty four (24) hours prior to plating, assay plates were coated with 30 μl poly-D-lysine per well. Human Embryonic Kidney 293T cells (HEK293T) were plated in to 96 well tissue culture treated glass bottom view plates (Perkin Elmer, Part No. 6005430) at a density of 25K cells per well. […] Images were analyzed using NIH Image J software and Graphpad Prism 6. […]
# Gαo = target: T2, Gαo (Homo sapiens, UniProt P09471); test: Differential scanning fluorimetry (DSF) with Gαo; format: binding; conditions: 50 μM compound
# T2 construct: 6xHis; made in house; host or cells: BL21 (DE3) E. coli (printed 'B1-21 (DE3)')
# Protocol: Further evaluation of the compounds designated UI-5, UI-1590, UI-1907 and UI-1956 was conducted using Differential Scanning Fluorimetry (DSF). This method allows for the rapid measurement of protein stability based on the melting temperature (Tm) of the target protein that is bound by ligand. A shift of Tm indicates a change in protein stability to melting due to stabilization added by the small molecule binding to the target protein. The four compounds were incubated at 50 μM with RGS17 or Gαo in the presence of Sypro Orange. In aqueous solution the fluorescence emission from the dye is very weak. […] The hydrophobic parts of a native, fully folded, protein in solution are generally buried within the protein and therefore not accessible to the dye resulting in little fluorescence emission. When the protein unfolds the dye molecules can bind to the exposed hydrophobic regions of the proteins, resulting in increased fluorescence. […]
# Differential scanning fluorimetry experiments were carried out using white 384-well μltraAMP PCR plates (Sorenson BioSciences; Salt Lake City, Utah). […] All data was collected using the Roche LightCycler data acquisition ability and analyzed with Graphpad Prism 6.0, using first and second derivatives of the fluorescent melting curves.
# [4] = malachite green, n=3, read-out: IC50 for inhibition of RGS17 GAP activity
# T2 sequence (P09471 whole entry): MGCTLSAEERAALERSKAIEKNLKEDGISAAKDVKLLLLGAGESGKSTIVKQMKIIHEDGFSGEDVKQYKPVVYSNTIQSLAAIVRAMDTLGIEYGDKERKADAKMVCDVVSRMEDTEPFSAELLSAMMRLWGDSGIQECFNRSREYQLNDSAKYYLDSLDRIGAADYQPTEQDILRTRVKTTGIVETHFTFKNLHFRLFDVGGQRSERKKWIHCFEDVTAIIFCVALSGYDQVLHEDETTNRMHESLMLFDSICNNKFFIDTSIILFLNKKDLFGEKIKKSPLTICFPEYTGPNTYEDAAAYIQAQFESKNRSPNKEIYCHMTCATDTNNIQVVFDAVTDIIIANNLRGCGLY
SMILES,"IC50 [1, 4]",delocalization / cellular activity ([2]; 10 μM compound),time to full delocalization of GFP-RGS17 from the membrane ([2]; 10 μM compound),delocalization of RGS17ΔN from the membrane ([2]; 100 μM compound),time to full delocalization of GFP-RGS17 from the membrane ([2]; 100 μM compound),delocalization of full length RGS17FL [3],IC50 [1],effect on Gαo thermal stability (DSF) (Gαo)
C[n+]1cc2c3c(ccc2c2ccc4cc5c(cc4c21)OCO5)OCO3 [UI-5],12 µM,had cellular activity,30 min,delocalization occurs,5 min,remained at the membrane; also recorded: does not diffuse back in to the cytoplasm,–,–
CC1=C(O)C(=O)C=C2C1=CC=C1[C@@]2(C)CC[C@@]2(C)[C@@H]3C[C@](C)(C(=O)O)CC[C@]3(C)CC[C@]12C [UI-1590],6.36 µM,had cellular activity,20 min,delocalization occurs,5 min,–,6 µM,–
CC(C)=CCC[C@]1(C)C=Cc2c(O)c3c(c(CC=C(C)C)c2O1)O[C@]12C(=C[C@@H]4C[C@H]1C(C)(C)O[C@@]2(C/C=C(/C)C(=O)O)C4=O)C3=O [UI-1907],–,–,–,not,–,–,–,decrease the thermal stability of the Gαo subunit
"O=c1c(-c2cc(O)c(O)c(O)c2)coc2cc(O)c(O)c(O)c12 [UI-1956, 5,6,7-trihydroxy-3-(3,4,5-trihydroxyphenyl)-4H-chromen-4-one]",35 µM,had cellular activity,30 min,delocalization occurs,20 min,–,–,–

# Reference: patent US20160264616A1, “THERAPEUTIC COMPOUNDS AND METHODS” (priority 2015, published 2016)
